These results are taken from patent US4317768A, “Dihydropyridine derivatives as stabilizers for vinyl chloride polymers” (priority 1977, dated 1982).

The nature of series [1]: Static thermostability (GARDNER method), rigid PVC sheets, 210° C., 0.3 part stabilizer. The following applies: for thermostabilizing power compared to 2-phenyl-indole, in words: 210° C. On the procedure:
(§1) This study was carried out according to the GARDNER method, described in British Pat. No. 1,489,685.
(§2) The reference substance was 2-phenyl-indole, a well-known and widely used stabilizer.
(§3) The stabilizer (dihydropyridine or 2-phenyl-indole) and the other usual ingredients were mixed with powdered vinyl resins and the mixtures were calendered at a temperature of 160° C. to give rigid sheets.
(§4) The sheets were then heated in a thermostated oven (185° C. or 210° C.) for different intervals of time until incipient carbonization.
(§5) The coloration of the samples was compared to a standard scale of coloration, known as the GARDNER scale and was expressed in terms of the reference figures of the GARDNER scale.
(§6) This study was carried out with the following resin:
(§7) Polyvinyl chloride resin
(§8) SL 2016 is a solution of zinc-2-ethyl-hexanoate in a mixture of hydrocarbons boiling between 158° C. and 184° C.
The first trial was carried out at 210° C. with a resin containing 0.3 part by weight of stabilizer, the sheets being removed from the oven every three minutes over a period of 21 minutes.

The nature of series [2]: Static thermostability (GARDNER method), rigid PVC sheets, 185° C., 0.3 part stabilizer. As to the method:
as §1, §2, §3, §4, §5, §6, §7, §8
A second trial was performed at a temperature of 185° C., with a resin containing 0.3 part of stabilizer, the samples being removed from the oven every 6 minutes over a period of 24 minutes, then every 3 minutes until the 42nd minute (or until carbonization).

Series [3] is described as follows: Static thermostability (GARDNER method), rigid PVC sheets, 185° C., equimolecular quantities. As to conditions: 1.55×10^-3 mol. As to the method: as §1, §2, §3, §4, §5, §6, §7, §8
Finally, a trail was performed at 185° C., with resins containing equimolecular quantities of the dihydropyridines or of 2-phenyl-indole, namely 1.55×10^-3 mol. In this case too, the samples were removed from the oven every 6 minutes over a period of 24 minutes and then every 3 minutes until the 42nd minute (or until carbonization).

Take `CC1=C(C(=O)OCCCl)CC(C(=O)OCCCl)=C(C)N1` [Compound 3, 2,6-Dimethyl-3,5-di-(2'-carbochloro-ethoxy)-1,4-dihydroyridine]: the “coloration, GARDNER scale” value came out at 1 in series [1] (0 min); 1 in series [1] (3 min); 3 in series [1] (6 min); 4 in series [1] (9 min); 5 in series [1] (12 min); 10.5 in series [1] (15 min). In addition, the “coloration, GARDNER scale” value in series [1] (18 min) is on record as “Burnt”; in series [2] (0 min), 1; in series [2] (6 min) it was 1; in series [2] (12 min) it was 5; in series [2] (18 min) it was 8; in series [2] (24 min), 10. The “coloration, GARDNER scale” value is given as 10.5 in series [2] (27 min); 13 in series [2] (30 min); 14 in series [2] (33 min); 18 in series [2] (36 min); 18 in series [2] (39 min); “Burnt” in series [2] (42 min). Also, in series [1], the “thermostabilizing power compared to 2-phenyl-indole, in words” value was “greatly superior to 2-phenyl-indole”.
For the molecule `COc1ccc(COC(=O)C2=C(C)NC(C)=C(C(=O)OCc3ccc(OC)cc3)C2)cc1` [Compound 4], the “coloration, GARDNER scale” value in series [1] (0 min) is on record as 1; in series [1] (3 min) it was 1; in series [1] (6 min) it was 2; in series [1] (9 min), 4; in series [1] (12 min) it was 6; in series [1] (15 min) it was 11. In addition, the “coloration, GARDNER scale” value is “Burnt” in series [1] (18 min); 1 in series [2] (0 min); 1 in series [2] (6 min); 2 in series [2] (12 min); 8 in series [2] (18 min); 13 in series [2] (24 min). Besides, the “coloration, GARDNER scale” value in series [2] (27 min) is 14; in series [2] (30 min), 17; in series [2] (33 min) it was 18; in series [2] (36 min) it was “Burnt”; in series [3] (0 min), 1; in series [3] (6 min), 1. Besides, the “coloration, GARDNER scale” value in series [3] (12 min) is given as 1; in series [3] (18 min), 4; in series [3] (24 min), 6; in series [3] (27 min), 8; in series [3] (30 min), 11; in series [3] (33 min), 15. Further, the “coloration, GARDNER scale” value in series [3] (36 min) is listed as “Burnt”. Besides, the “coloration of the resins, in words” value in series [1] (0 to 3 minutes) was “considerably less”.
With `CC1=C(C(=O)OCc2ccc(Cl)cc2)CC(C(=O)OCc2ccc(Cl)cc2)=C(C)N1` [Compound 7, 2,6-Dimethyl-3,5-di-(4'carbochloro-benzyloxy)-1,4-dihydropyridine], the “coloration, GARDNER scale” value in series [1] (0 min) amounted to 1; in series [1] (3 min), 1; in series [1] (6 min), 2; in series [1] (9 min), 4; in series [1] (12 min), 10.5; in series [1] (15 min) it was 14. For the same molecule, the “coloration, GARDNER scale” value in series [1] (18 min) is reported as “Burnt”.
For `CCCCCCC1C(C(=O)OC)=C(C)NC(C)=C1C(=O)OC` [Compound 8, 2,6-Dimethyl-3,5-dicarbomethoxy-4-hexyl-1,4-dihydropyridine], the “coloration, GARDNER scale” value in series [1] (0 min) is given as 1; in series [1] (3 min), 2; in series [1] (6 min), 3; in series [1] (9 min), 6; in series [1] (12 min), 8; in series [1] (15 min), 10.5. Further, the “coloration, GARDNER scale” value in series [1] (18 min) was 11; in series [1] (21 min), “Burnt”.
On to `CCOC(=O)C1=C(Cc2ccccc2)NC(Cc2ccccc2)=C(C(=O)OCC)C1` [Compound 16, 2,6-Dibenzyl-3,5-dicarbethoxy-1,4-dihydropyridine], for which the “coloration, GARDNER scale” value in series [1] (0 min) is recorded as 1; in series [1] (3 min), 1; in series [1] (6 min), 3; in series [1] (9 min) it was 4; in series [1] (12 min), 11; in series [1] (15 min), 18. In addition, the “coloration, GARDNER scale” value in series [1] (18 min) is reported as “Burnt”. Also, the “thermostabilizing power compared to 2-phenyl-indole, in words” value in series [1] is on record as “greatly superior to 2-phenyl-indole”.
For the molecule `C=CCCC1=C(C(=O)OC)CC(C(=O)OC)=C(CCC=C)N1` [Compound 17, 2,6-Di-(3-butenyl)-3,5-dicarbomethoxy-1,4-dihydropyridine], the “coloration, GARDNER scale” value in series [1] (0 min) is reported as 1; in series [1] (3 min), 1; in series [1] (6 min), 2; in series [1] (9 min) it was 8; in series [1] (12 min) it was 9; in series [1] (15 min), “Burnt”. Further, the “thermostabilizing power compared to 2-phenyl-indole, in words” value in series [1] was “greatly superior to 2-phenyl-indole”.
With `COC(=O)C1=C(c2ccccc2)NC(c2ccccc2)=C(C(=O)OC)C1` [Compound 18, 2,6-Diphenyl-3,5-dicarbomethoxy-1,4-dihydropyridine], the “coloration, GARDNER scale” value in series [1] (0 min) worked out at 1; in series [1] (3 min), 1; in series [1] (6 min), 2; in series [1] (9 min) it was 2; in series [1] (12 min) it was 2; in series [1] (15 min), 3. In addition, the “coloration, GARDNER scale” value in series [1] (18 min) is 6; in series [1] (21 min), “Burnt”.
Consider `CC1=C(C(=O)OCCOCCCl)CC(C(=O)OCCOCCCl)=C(C)N1` [Compound 19, 2,6-Dimethyl-3,5-di-(2"-carbochloro-2'ethoxy-ethoxy)-1,4-dihydropyridine], for which the “coloration, GARDNER scale” value in series [1] (0 min) is given as 1; in series [1] (3 min) it was 1; in series [1] (6 min), 1; in series [1] (9 min), 2; in series [1] (12 min) it was 3; in series [1] (15 min) it was 10. The “coloration, GARDNER scale” value was 13 in series [1] (18 min) and “Burnt” in series [1] (21 min).
Turning to `CCCCCCCCCCCCCC1=C(C(=O)OC)CC(C(=O)OC)=C(CCCCCCCCCCCCC)N1` [Compound 20, 2,6-Ditridecyl-3,5-dicarbomethoxy-1,4-dihydropyridine], the “coloration, GARDNER scale” value in series [1] (0 min) was 1; in series [1] (3 min) it was 1; in series [1] (6 min) it was 1.5; in series [1] (9 min), 2; in series [1] (12 min), 2; in series [1] (15 min), 2.5. Moreover, the “coloration, GARDNER scale” value in series [1] (18 min) came out at 4; in series [1] (21 min), 7.
As for `CC1=C(C(=O)OCC=Cc2ccccc2)CC(C(=O)OCC=Cc2ccccc2)=C(C)N1` [Compound 22, 2,6-Dimethyl-3,5-dicarbocinnamyloxy-1,4-dihydropyridine], the “coloration, GARDNER scale” value is on record as 1 in series [1] (0 min); 1 in series [1] (3 min); 2 in series [1] (6 min); 4 in series [1] (9 min); 11 in series [1] (12 min); “Burnt” in series [1] (15 min).
As to `COC(=O)C1=C(C)NC(C)=C(C(=O)OC)C1c1ccccc1` [Compound 23, 2,6-Dimethyl-3,5-dicarbomethoxy-4-phenyl-1,4-dihydropyridine], the “coloration, GARDNER scale” value is listed as 1 in series [1] (0 min); 2 in series [1] (3 min); 3 in series [1] (6 min); 13 in series [1] (9 min); 14 in series [1] (12 min); 15 in series [1] (15 min). Moreover, the “coloration, GARDNER scale” value in series [1] (18 min) was “Burnt”.
Take `COCCOC(=O)C1=C(C)NC(C)=C(C(=O)OCCOC)C1` [Compound 25]: the “coloration, GARDNER scale” value turned out to be 1 in series [1] (0 min); 1 in series [1] (3 min); 1 in series [1] (6 min); 1 in series [1] (9 min); 1 in series [1] (12 min); 4 in series [1] (15 min). The “coloration, GARDNER scale” value in series [1] (18 min) is on record as 11; in series [1] (21 min) it was 17.
Turning to `CCOCCOC(=O)C1=C(C)NC(C)=C(C(=O)OCCOCC)C1` [Compound 26], the “coloration, GARDNER scale” value was determined as 1 in series [1] (0 min); 1 in series [1] (3 min); 1 in series [1] (6 min); 1 in series [1] (9 min); 1.5 in series [1] (12 min); 3 in series [1] (15 min). In addition, the entries for the “coloration, GARDNER scale” value in series [1] (18 min) and in series [1] (21 min) were 11 and “Burnt”, respectively.
